Data reported in patent publication US9657046B2, “Methods for the treatment and prevention of inflammatory diseases” (Children's Medical Center Corporation, priority 2010, dated 2017).

What was measured:
BALB/c mice = assay: OVA-induced AHR in adult mice treated with glycolipid at 2 weeks of age; type: in vivo, mouse; conditions: 2 wk old mice treated i.p. (α-C-GalCer 5 μg, α-GalCer 2 μg, PI57 50 or 100 μg, PBS30 50 μg); AHR induced 6 wks (42 days) later
Experimental: In FIGS. 6A-6B, two-week-old BALB/c mice (n=6-8/group) (6A) or Tbet^−/− mice (6B) (n=4-6 per group) received 5 μg […] (cGal), 2 μg α-GalCer, or vehicle. After OVA sensitization and challenge, AHR was measured on day 44. In FIG. 6C, donor mice were treated with α-C-GalCer (5 μg) or vehicle i.p. NKT cells served as donors, as in FIG. 4A (n=4 per group). Lung resistance (left) and cell counts in BAL (right) were assessed. […] In FIG. 6E, mice received PI57 (50 μg), α-GalCer (2 μg), or vehicle i.p., and lungs were examined 1 or 14 days later for CD4 and CD8 expression. In FIG. 6F, absolute numbers of CD4^+ NKT and DN NKT subsets from 6E were assessed. In FIG. 6G, BALB/c mice (n=5-8/group) received PI57 or vehicle i.p. Lung resistance (left) and BAL cells (right) were assessed. In FIG. 6H, BALB/c mice treated with PI57 (50 μg), PBS30 (Sphingomonas glycolipid) (50 μg), or vehicle i.p. were assessed for AHR as in 6G. In FIG. 6I, donor mice were treated with PI57 (50 μg) or vehicle i.p. NKT cells served as donors as in FIG. 4A. Lung resistance (left) and BAL cells (right) were assessed (n=4 per group). […] Data represent 2-3 independent experiments. *P<0.05, #P<0.05, ***P<0.001 versus vehicle-OVA (6C, 6G, and 6I), DN NKT saline (6F), and CD4^+ NKT saline (6F).
Induction of AHR and measurement of airway responsiveness in the OVA model.
To induce AHR, BALB/c mice were sensitized with 100 μg of OVA (Sigma-Aldrich) in alum administered i.p (on day 0). After sensitization, mice were exposed to intranasal antigen (50 μg OVA/day) or normal saline for 1 day (day 7; single dose challenge protocol), or for 3 consecutive days (days 7, 8, 9). AHR was assessed on the day after last OVA-challenge. Control mice received i.p. injection of PBS and intranasal administrations of normal saline.

BM2a.3 cells = assay: Human NKT cell clone on CD1d Fc-coated plates loaded with lipid, IFN-γ ELISA; type: cell-based; conditions: 5×10^4 NKT cells, 24 hours
Experimental: In FIG. 7A, NKT cell lines were cocultured with BM-derived DCs (BMDCs) and α-GalCer (100 ng/ml), PI57 (10 μg/ml), or vehicle for 48 hours, with or without pre-incubation with anti-CD1d (10 μg/ml). IFN-γ was measured by ELISA. In FIG. 7B, murine NKT cell lines were cocultured as in 7A with BMDCs from WT, Cd1d^−/−, Myd88^−/−, or Trif^−/− mice. Cells were treated with α-GalCer (100 ng/ml), PI57 (2.5, 5, or 10 μg/ml), PBS30 (1, 2.5, or 5 μg/ml), or vehicle for 48 hours. IFN-γ and IL-4 were measured by ELISA. […] In FIG. 7D, mouse NKT cell lines were stained with PE-labeled CD1d tetramers of PI57 or α-GalCer at 4° C. for 45 minutes or 37° C. for 25 minutes, and with anti-TCRβ-APC antibody. Top: Lymphocytes were gated in the FSC/SSC window. Bottom: Percentage of CD1d tetramer+ cells. […] IFN-γ was analyzed by ELISA after 24 hours. […]
Maxisorp plates (Nunc) were coated with PBS diluted recombinant human CD1d/β2 microglobulin Fc fusion proteins (0.5 μg/well; kindly provided by Dr. Jenny Gumperz (64) and anti-LFA-1 antibodies (0.05 μg/well, AbD Serotec) overnight at 4° C. After washing with PBS, immobilized CD1d was loaded with sonicated lipid antigens diluted in 25% DMSO/dH2O by overnight incubation at 37° C. After washing with PBS and culture media, NKT cells were added (5×10^4 cells/well) and culture supernatants were analyzed for IFN-γ by ELISA after overnight culture at 37° C.

NKT cell clone BM2a.3 = assay: Human NKT cell clone BM2a.3 with CD1d-transfected cells, IFN-γ; type: cell-based
Experimental: In FIG. 7A, NKT cell lines were cocultured with BM-derived DCs (BMDCs) and α-GalCer (100 ng/ml), PI57 (10 μg/ml), or vehicle for 48 hours, with or without pre-incubation with anti-CD1d (10 μg/ml). IFN-γ was measured by ELISA. In FIG. 7B, murine NKT cell lines were cocultured as in 7A with BMDCs from WT, Cd1d^−/−, Myd88^−/−, or Trif^−/− mice. Cells were treated with α-GalCer (100 ng/ml), PI57 (2.5, 5, or 10 μg/ml), PBS30 (1, 2.5, or 5 μg/ml), or vehicle for 48 hours. IFN-γ and IL-4 were measured by ELISA. […] In FIG. 7D, mouse NKT cell lines were stained with PE-labeled CD1d tetramers of PI57 or α-GalCer at 4° C. for 45 minutes or 37° C. for 25 minutes, and with anti-TCRβ-APC antibody. Top: Lymphocytes were gated in the FSC/SSC window. Bottom: Percentage of CD1d tetramer+ cells. […] In FIG. 7G, CD1d Fc-coated Maxisorp plates were loaded with lipid and cultured with 5×10^4 NKT cells. IFN-γ was analyzed by ELISA after 24 hours. Data represent 3 or 5 independent experiments.
CD1d transfected K562 cells and CD1d restricted human NKT cell clone BM2a.3 were previously described (62). The anti-CD1d antibody (clone 12.1.1.1) experiments have been performed as described (63).

T-bet−/− mice = assay: OVA-induced AHR in T-bet−/− mice treated with glycolipid at 2 weeks of age; type: in vivo, mouse; conditions: 2 wk old T-bet−/− mice; α-C-GalCer 5 μg or PI57 50 μg; AHR measured on day 44
Experimental: In FIGS. 6A-6B, two-week-old BALB/c mice (n=6-8/group) (6A) or Tbet^−/− mice (6B) (n=4-6 per group) received 5 μg […] (cGal), 2 μg α-GalCer, or vehicle. After OVA sensitization and challenge, AHR was measured on day 44. In FIG. 6C, donor mice were treated with α-C-GalCer (5 μg) or vehicle i.p. NKT cells served as donors, as in FIG. 4A (n=4 per group). Lung resistance (left) and cell counts in BAL (right) were assessed. […] In FIG. 6E, mice received PI57 (50 μg), α-GalCer (2 μg), or vehicle i.p., and lungs were examined 1 or 14 days later for CD4 and CD8 expression. In FIG. 6F, absolute numbers of CD4^+ NKT and DN NKT subsets from 6E were assessed. In FIG. 6G, BALB/c mice (n=5-8/group) received PI57 or vehicle i.p. Lung resistance (left) and BAL cells (right) were assessed. In FIG. 6H, BALB/c mice treated with PI57 (50 μg), PBS30 (Sphingomonas glycolipid) (50 μg), or vehicle i.p. were assessed for AHR as in 6G. […] Lung resistance (left) and BAL cells (right) were assessed (n=4 per group). […]
In FIG. 10, NKT cells from α-GalCer or vehicle-treated mice were adoptively transferred to OVA-sensitized BALB/c recipients. AHR was measured after OVA challenge. […] After sensitization and challenge with OVA, AHR was measured on day 44. […]
To induce AHR, BALB/c mice were sensitized with 100 μg of OVA (Sigma-Aldrich) in alum administered i.p (on day 0). […] AHR was assessed on the day after last OVA-challenge. […]

[1] = tested on: OVA-sensitized BALB/c mice; assay: Adoptive transfer of NKT cells from glycolipid-treated mice into OVA-sensitized BALB/c recipients (AHR, BAL); type: in vivo, mouse; conditions: OVA-sensitized WT recipients

CCCCCCCCCCCCCC(=O)OC[C@H]1O[C@H](O[C@H]2CC[C@@]3(C)C(=CC[C@H]4[C@@H]5CC[C@H]([C@H](C)CCCC(C)C)[C@@]5(C)CC[C@@H]43)C2)[C@H](O)[C@@H](O)[C@@H]1O [PI57, Cholesteryl 6-O-tetradecanoyl-α-D-glucopyranoside]
protection against development of OVA-induced AHR (lung resistance) (BALB/c mice): protected the mice from the development of OVA-induced AHR | IFN-γ induced by plate bound CD1d loaded with glycolipid (BM2a.3 cells): induced IFN-γ in BM2a.3 cells | response (IFN-γ production) of Vα24+ NKT cell clone BM2a.3 (NKT cell clone BM2a.3): responded to this glycolipid | protection against OVA-induced AHR in T-bet−/− mice (T-bet−/− mice): did not protect against subsequent OVA-induced AHR | airway inflammation (BAL cells, lung sections) in recipients of NKT cells from glycolipid-treated donors ([1]; donors treated i.p. at 2 wk (α-C-GalCer 5 μg, PI57 50 μg)): suppressed AHR and airway inflammation | AHR in recipients of NKT cells from glycolipid-treated donors ([1]; donors treated i.p. at 2 wk (α-C-GalCer 5 μg, PI57 50 μg, or α-GalCer), NKT cells harvested 6 wks later): suppressed AHR
